In publication PMC4704828, “Effect of Methamphetamine on Spectral Binding, Ligand Docking and Metabolism of Anti-HIV Drugs with CYP3A4” (PLoS ONE, 2016):
Like-named read-outs stand apart in the source and are kept apart here.

Experiments:
CYP3A4 [1] = target: CYP3A4 (Homo sapiens, UniProt P08684); test: biochemical
Description: Histidine tagged CYP3A4 enzyme was expressed in E. coli and purified on Ni-NTA agarose column as described previously. Briefly, CYP3A4 cDNA was introduced into TOPP3 strain of E. coli by transformation and the cells were plated on LB ampicillin plate with tetracycline. The next day, a viable and isolated colony was grown in TB media for 48 h to induce CYP3A4. The cultures were harvested by centrifugation and CYP3A4 was extracted from the membrane using detergent followed by ultracentrifugation. The supernatant was loaded on a Ni-NTA agarose column for further purification. The purified enzyme was dialyzed and final preparation was stored at -80^οC until use.
The spectral change was recorded by using a UV/Vis double beam spectrophotometer (6800 UV/VIS JENWAY spectrophotometer) as described earlier. Briefly, 0.5 μM of purified CYP3A4 enzyme was incubated with 2 ml of 0.1 M HEPES buffer for 3 min and distributed equally between the sample and reference cuvettes. Depending upon the solvent used to solubilize methamphetamine or PIs, equal quantities of either methanol or water was added into the reference cuvette with final volume of the external solvent <1%. Increasing concentrations of methamphetamine was added to the sample cuvette while the same volume of solvent was added into the reference cuvette and the spectral change was recorded. For experiments involving PIs, different concentrations of PIs were added into the sample cuvette and the spectral change was recorded with a 2 min interval between each addition. […] Type I ligands displace the heme water ligand, thus shifting the iron spin equilibrium towards the high-spin form resulting in a spectrum, which is characterized by an increase in the absorbance at 390 nm (high spin) and a decrease at 420 nm (low spin). Type II ligands containing nitrogen heterocycles replace the water ligand to stabilize the low-spin form resulting in a spectrum that is characterized by an increase in the spectrum at ~430 nm and a decrease at ~400 nm. The effect of methamphetamine on the spectral binding of PIs was determined by incubating the CYP3A4 enzyme with 100 μM of methamphetamine and titrating with increasing concentrations of PIs.
The KD and δAmax were determined by fitting the curve (absorbance vs. concentration) with hyperbolic equation using non-regression analysis in sigma plot 11 (Systat Software, San Jose, CA). The p-values were determined using One way ANOVA with Dunnet’s post-hoc test and values <0.05 were considered statistically significant.

CYP3A4 [2] = conditions: HLMs; for decrease in formation of hydroxy ritonavir: substrate ritonavir 2 μM
Description: Briefly, the metabolite formations were assessed in incubation mixtures (0.5 mL) containing 100 mM phosphate buffer (pH 7.4), HLMs (0.1 mg/mL), and 5 mM Mgcl2 [13, 14]. The incubation mixtures were pre-incubated with six different concentrations of Meth ranging from 3 μM to 1000 μM for 10 min, followed by the addition of 5 μl stock solution of PI. The entire mixture was incubated in water bath at 37°C for 15 min. […] Later, the reactions were initiated upon the addition of 100 μl of 25 mM NADPH (final concentration of 5 mM) solution to each of the tube and incubated in water bath at 37°C for 60 min. […] Then, the tubes were vortexed and centrifuged at 500 g for 10 min and supernatant was transferred into vials for analysis by LC-MS/MS.
Standard curves for each analyte with IS were generated in blank HLMs incubation mixture as described above. The carry over test was performed by injecting an extra blank following the injection of upper limit of quantitation (ULOQ) of the standard curve with an IS. The LC-MS/MS methods were developed for each analyte along with its metabolite using 3200 QTRAP LC-MS/MS system, AB Sciex. […] (Fig 1, Table 1). A source temperature of 500°C, ion spray voltage of 5500 V, curtain gas of 20, GS 1 & 2 of 50, and dwell time of 200 msec were used for the determination of all analytes. The MRM method parameters such as declustering potential (DP), entrance potential (EP), collision energy (CE), and collision cell exit potential (CXP), were listed in the Table 1 along with the MRM transitions.
All the analytes were separated on reverse phase XTerra ® MS C18 column (4.6X50mm, i.d, 3.5 μm) using a Shimadzu LC-20AD HPLC system (CA, USA). A binary gradient elution method comprising of mobile phases (acetonitrile with 0.1% formic acid and water with 0.1% formic acid) with a flow rate of 0.5 mL/min was employed. […] Data acquisition and analyses were performed using the Analyst 1.4.2 software package (Applied Biosystems, Foster City, CA, USA).

CYP3A4 (Homo sapiens, UniProt P08684), sequence (P08684 whole entry): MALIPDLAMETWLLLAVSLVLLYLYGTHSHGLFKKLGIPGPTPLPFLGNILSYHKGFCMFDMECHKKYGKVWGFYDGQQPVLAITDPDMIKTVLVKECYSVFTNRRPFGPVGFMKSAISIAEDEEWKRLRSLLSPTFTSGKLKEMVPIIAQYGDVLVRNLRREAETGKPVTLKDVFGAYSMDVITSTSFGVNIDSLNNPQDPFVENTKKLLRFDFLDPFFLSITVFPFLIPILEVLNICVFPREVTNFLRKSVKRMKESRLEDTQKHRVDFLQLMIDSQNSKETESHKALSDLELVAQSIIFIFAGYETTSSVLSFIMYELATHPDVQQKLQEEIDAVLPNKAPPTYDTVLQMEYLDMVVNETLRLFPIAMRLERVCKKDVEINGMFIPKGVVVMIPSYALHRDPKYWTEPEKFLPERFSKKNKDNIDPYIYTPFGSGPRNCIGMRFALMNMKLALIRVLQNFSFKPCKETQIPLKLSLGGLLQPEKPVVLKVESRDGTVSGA

CCC[C@@]1(CCc2ccccc2)CC(O)=C([C@H](CC)c2cccc(NS(=O)(=O)c3ccc(C(F)(F)F)cn3)c2)C(=O)O1 [Tipranavir]
δAmax (CYP3A4 [1]; human): 0.0050 ± 0.0005

COC(=O)N[C@H](C(=O)N[C@@H](Cc1ccccc1)[C@@H](O)CN(Cc1ccc(-c2ccccn2)cc1)NC(=O)[C@@H](NC(=O)OC)C(C)(C)C)C(C)(C)C [Atazanavir]
δAmax (CYP3A4 [1]; human): 0.0045 ± 0.0002

CN[C@@H](C)Cc1ccccc1 [methamphetamine]
Kd (CYP3A4 [1]; KD, methamphetamine alone titrated with CYP3A4, hyperbolic fit): 204 ± 18 µM | spectral transition (low to high spin) with CYP3A4 (CYP3A4 [1]; at saturating concentration of methamphetamine): approximately 20% | type of spectral change upon binding to CYP3A4 (CYP3A4 [1]; increase in absorbance at 390 nm, decrease at 418 nm): type I | δAmax (CYP3A4 [1]; methamphetamine alone titrated with CYP3A4, hyperbolic fit): 0.016±0.001 | decrease in formation of hydroxy ritonavir (CYP3A4 [2]; 100 μM methamphetamine): 23.3 ± 3.8% | decrease in formation of hydroxy ritonavir (CYP3A4 [2]; 1000 μM methamphetamine): 46.2 ± 3.3% | effect on metabolism of lopinavir (lopinavir M1 formation) (CYP3A4 [2]; methamphetamine 3 μM to 1000 μM, substrate lopinavir 10 μM): did not affect | effect on metabolism of nelfinavir M8 (decrease in substrate concentration) (CYP3A4 [2]; methamphetamine 3 μM to 1000 μM, substrate nelfinavir M-8 1 μM): did not affect

Cc1c(O)cccc1C(=O)N[C@@H](CSc1ccccc1)[C@H](O)CN1C[C@H]2CCCC[C@H]2C[C@H]1C(=O)NC(C)(C)C [Nelfinavir]
δAmax (CYP3A4 [1]; human): 0.0068 ± 0.0001
